[ ]: non-standard residue; d: D form. The star is where a group is joined. X1 = CC(C)CCC[C@@H](C)[C@H]1CC[C@H]2[C@@H]3CC=C4C[C@@H](OC(=O)C*)CC[C@]4(C)[C@H]3CC[C@]12C; PEG4 = NCCOCCOCCOCCOCCC(=O)O
Tests used:
SARS-CoV-2 = format: cell-based
SARS CoV-2 glycoprotein = SARS CoV-2 glycoprotein (Severe acute respiratory syndrome coronavirus 2, UniProt P0DTC2); assay: cell-based

| Compound | IC50 (Bundibugyo EBOV) | Max % inh (Bundibugyo EBOV) | IC50 (ZEBOV Mayinga) | Max % inh (ZEBOV Mayinga) | IC50 (ZEBOV Gueckedou C07) | Max % inh (ZEBOV Gueckedou C07) | reduction in SARS-CoV-2 infection (SARS-CoV-2) | IC90 (SARS CoV-2 glycoprotein) |
| --- | --- | --- | --- | --- | --- | --- | --- | --- |
| CC[C@H](C)[C@H](NC(=O)CNC(=O)[C@H](CO)NC(=O)CNC(=O)[C@H](CCCNC(=N)N)NC(=O)[C@H](CCCNC(=N)N)NC(=O)[C@H](CCCNC(=N)N)NC(=O)[C@H](CCC(N)=O)NC(=O)[C@H](CCCNC(=N)N)NC(=O)[C@H](CCCNC(=N)N)NC(=O)[C@H](CCCCN)NC(=O)[C@H](CCCCN)NC(=O)[C@H](CCCNC(=N)N)NC(=O)CNC(=O)[C@H](Cc1ccc(O)cc1)NC(C)=O)C(=O)N[C@@H](CCC(=O)O)C(=O)N1CCC[C@H]1C(=O)N[C@@H](Cc1c[nH]cn1)C(=O)N[C@@H](CC(=O)O)C(=O)N[C@@H](Cc1c[nH]c2ccccc12)C(=O)N[C@H](C(=O)N[C@@H](CCCCN)C(=O)N[C@@H](CC(N)=O)C(=O)N[C@H](C(=O)N[C@H](C(=O)N[C@@H](CC(=O)O)C(=O)N[C@@H](CCCCN)C(=O)N[C@H](C(=O)N[C@@H](CC(=O)O)C(=O)N[C@@H](CCC(N)=O)C(=O)N[C@H](C(=O)N[C@H](C(=O)N[C@@H](Cc1c[nH]cn1)C(=O)N[C@@H](CC(=O)O)C(=O)N[C@@H](Cc1ccccc1)C(=O)N[C@H](C(=O)N[C@@H](CC(=O)O)C(=O)N[C@@H](CCCCN)C(=O)NCC(=O)N[C@@H](CO)C(=O)NCC(=O)N[C@@H](CO)C(=O)NCC(=O)N[C@@H](CSCC(=O)NCCOCCOCCOCCOCCC(=O)O[C@H]1CC[C@@]2(C)C(=CC[C@H]3[C@@H]4CC[C@H]([C@H](C)CCCC(C)C)[C@@]4(C)CC[C@@H]32)C1)C(N)=O)C(C)C)[C@@H](C)CC)[C@@H](C)CC)[C@@H](C)CC)[C@@H](C)O)[C@@H](C)CC)[C@@H](C)O [TAT-EBO-PEG4-Chol] | 70 nM | 98.5% | 50 nM | 97.9% | 20 nM | 97.5% |  |  |
| CC[C@H](C)[C@H](NC(=O)CNC(=O)[C@H](CO)NC(=O)CNC(=O)[C@H](CCCNC(=N)N)NC(=O)[C@H](CCCNC(=N)N)NC(=O)[C@H](CCCNC(=N)N)NC(=O)[C@H](CCC(N)=O)NC(=O)[C@H](CCCNC(=N)N)NC(=O)[C@H](CCCNC(=N)N)NC(=O)[C@H](CCCCN)NC(=O)[C@H](CCCCN)NC(=O)[C@H](CCCNC(=N)N)NC(=O)CNC(=O)[C@H](Cc1ccc(O)cc1)NC(C)=O)C(=O)N[C@@H](CCC(=O)O)C(=O)N1CCC[C@H]1C(=O)N[C@@H](Cc1c[nH]cn1)C(=O)N[C@@H](CC(=O)O)C(=O)N[C@@H](Cc1c[nH]c2ccccc12)C(=O)N[C@H](C(=O)N[C@@H](CCCCN)C(=O)N[C@@H](CC(N)=O)C(=O)N[C@H](C(=O)N[C@H](C(=O)N[C@@H](CC(=O)O)C(=O)N[C@@H](CCCCN)C(=O)N[C@H](C(=O)N[C@@H](CC(=O)O)C(=O)N[C@@H](CCC(N)=O)C(=O)N[C@H](C(=O)N[C@H](C(=O)N[C@@H](Cc1c[nH]cn1)C(=O)N[C@@H](CC(=O)O)C(=O)N[C@@H](Cc1ccccc1)C(=O)N[C@H](C(=O)N[C@@H](CC(=O)O)C(=O)N[C@@H](CCCCN)C(=O)NCC(=O)N[C@@H](CO)C(=O)NCC(=O)N[C@@H](CO)C(=O)NCC(=O)N[C@@H](CSCC(=O)NCCOCCOCCOCCOCCC(=O)Oc1c(C)c(C)c2c(c1C)CC[C@@](C)(CCC[C@H](C)CCC[C@H](C)CCCC(C)C)O2)C(N)=O)C(C)C)[C@@H](C)CC)[C@@H](C)CC)[C@@H](C)CC)[C@@H](C)O)[C@@H](C)CC)[C@@H](C)O [TAT-EBO-PEG4-Toco] | 310 nM | 100% | 700 nM | 96.9% | 100 nM | 100% |  |  |
| Ac-SLTQINTTLLNLEYEMKKLEEVVKKLEESYIDLKELGSG[PEG4]C(X1)-NH2 [MERS lipid-peptide] |  |  |  |  |  |  | 100% | 200 nM |
